Source: publication PMC3687796 (Clinical cancer research : an official journal of the …, 2011)
Counter-ions that a name gives are not always drawn.

How the values were obtained:
tumor cell lines = experiment: In vitro cytotoxicity, Alamar blue cell viability, all tumor cell lines; type: cell-based; conditions: 72 hours treatment, all concentrations tested
SH-SY5Y xenograft = experiment: SH-SY5Y subcutaneous xenograft model; type: in vivo; conditions: for tumor microvessel density (CD31 pixel counts): compared with the control, 20 days treatment; for tumor growth delay / tumor weights at the end of the treatment: daily oral, 20 days, LDM TP 1.0 mg/kg, PZ 150 mg/kg, TP + PZ both
[1] = test system: RH30 rhabdomyosarcoma xenograft; experiment: RH30 rhabdomyosarcoma xenograft model; type: in vivo; conditions: for tumor growth: LDM TP 1.0 mg/kg, PZ 150 mg/kg, TP + PZ both
[2] = PKs of topotecan and pazopanib in nontumor-bearing animals; type: in vivo, mouse; conditions: for difference between plasma concentrations of single agent and combination treated animals: at any time point
RH30 = experiment: In vitro cytotoxicity, Alamar blue cell viability; type: cell-based; conditions: Rh30, 72 h, read-out: IC50, viability of RH30
RD = experiment: In vitro cytotoxicity, Alamar blue cell viability; type: cell-based; conditions: Homo sapiens, 72 h, read-out: IC50, viability of RD
KHOS = experiment: In vitro cytotoxicity, Alamar blue cell viability; type: cell-based; conditions: 72 h, read-out: IC50, viability of KHOS
BE(2)-c metastatic model = experiment: BE; type: in vivo, mouse; conditions: daily oral until death or endpoint
[3] = test system: KHOS osteosarcoma xenograft; experiment: KHOS osteosarcoma xenograft model; type: in vivo; conditions: for tumor growth / tumor weight at the end of the treatment / tumor microvessel density (vWF pixel counts): 28 days; for tumor microvessel density (vWF pixel counts): compared with the control
ovarian cancer model = conditions: cited from earlier work
[4] = Pulse TP weekly oral 15 mg/kg topotecan
[5] = daily oral, LDM TP 1.0 mg/kg, TP + PZ 1.0 + 150 mg/kg

Cc1ccc(Nc2nccc(N(C)c3ccc4c(C)n(C)nc4c3)n2)cc1S(N)(=O)=O [pazopanib, 5-[[4-[(2,3-Dimethyl-2H-indazol-6-yl)methyl-amino]-2-pyrimidinyl]amino]-2-methylbenzolsulfonamide]
effect on viability of the tumor cell lines (tumor cell lines): did not affect the viabilities
tumor microvessel density (CD31 pixel counts) (SH-SY5Y xenograft): significant reduction in microvessel densities
tumor growth delay (SH-SY5Y xenograft): tumor growth delay in the order PZ< LDM TP< TP+PZ
tumor weights at the end of the treatment (SH-SY5Y xenograft): significant difference in tumor weights compared with the control
WBC level (bone marrow toxicity) ([1]; after 31 days treatment): reduced WBC level significantly
viable CEP levels in blood ([1]; after 31 days treatment): significantly lower viable CEP levels compared with the control
enhancement of survival compared with both control and LDM TP ([1]; daily oral, 56 days): 2 fold
tumor growth ([1]; daily oral, 56 days): delayed the tumor growth
difference between plasma concentrations of single agent and combination treated animals [2]: no significant difference
Cmax ([2]; mouse, plasma, po, 150 mg/kg): 134 µg/mL

CC[C@@]1(O)C(=O)OCc2c1cc1n(c2=O)Cc2cc3c(CN(C)C)c(O)ccc3nc2-1 [topotecan, (S)-10-[(dimethylamino)methyl]-4-ethyl-4,9-dihydroxy-1H-yrano [3′,4′:6,7] indolizino[1,2-b] quinoline-3,14 (4H,12H)-dione monohydrochloride]
IC50 (RH30): 7.4 ng/mL
IC50 (RD): 7.5 ng/mL
IC50 (KHOS): 4.9 ng/mL
effect on viability of the tumor cell lines (tumor cell lines): dose-dependent reduction in the viability
tumor microvessel density (CD31 pixel counts) (SH-SY5Y xenograft): but not LDM TP caused significant reduction in microvessel densities
tumor growth delay (SH-SY5Y xenograft): tumor growth delay in the order PZ< LDM TP< TP+PZ
tumor weights at the end of the treatment (SH-SY5Y xenograft): significant tumor weight reduction compared with PZ
survival (BE(2)-c metastatic model): higher than PZ-treated animals
tumor growth [3, 4]: delayed the tumor growth
tumor weight at the end of the treatment [3, 4]: significantly lower tumor weight
tumor growth [3, 5]: delayed the tumor growth
tumor weight at the end of the treatment [3, 5]: significantly lower tumor weight
viable CEP levels in blood ([3]; after 28 days treatment): significant reduction in viable CEP levels compared with Pulse TP
tumor microvessel density (vWF pixel counts) ([3]; Pulse TP weekly 15 mg/kg): caused reduction in microvessel densities
tumor microvessel density (vWF pixel counts) ([3]; daily regimens): caused reduction in microvessel densities
tumor growth ([1]; daily oral, 56 days): ineffective in controlling the tumor growth
peak plasma concentration of topotecan ([2]; LDM TP group, single oral 1.0 mg/kg topotecan): 19.75 ng/mL
peak plasma concentration of topotecan ([2]; TP + PZ group, single oral 1.0 mg/kg topotecan + 150 mg/kg pazopanib): 33.05 ng/mL
difference between plasma concentrations of single agent and combination treated animals [2]: no significant difference
food intake (ovarian cancer model; 1.5 mg/kg daily, oral): decreased food intake
microvascular density compared with weekly maximum-tolerated dose regimen (7.5 and 15 mg/kg) (ovarian cancer model; daily oral metronomic 0.5, 1.0 and 1.5 mg/kg): greater reduction in microvascular density
